The values below come from paper PMC6199744, “Development of Chemical Proteomics for the Folateome and Analysis of the Kinetoplastid Folateome” (ACS Infectious Diseases, 2018).

Assay type in all cases: binding
Test [1] concerns the target T1, HeLa cell extract proteins (Homo sapiens, UniProt O95218).
T1 construct: endogenous in cells; host or cells: HeLa cell extract
T1 sequence (O95218 1-330): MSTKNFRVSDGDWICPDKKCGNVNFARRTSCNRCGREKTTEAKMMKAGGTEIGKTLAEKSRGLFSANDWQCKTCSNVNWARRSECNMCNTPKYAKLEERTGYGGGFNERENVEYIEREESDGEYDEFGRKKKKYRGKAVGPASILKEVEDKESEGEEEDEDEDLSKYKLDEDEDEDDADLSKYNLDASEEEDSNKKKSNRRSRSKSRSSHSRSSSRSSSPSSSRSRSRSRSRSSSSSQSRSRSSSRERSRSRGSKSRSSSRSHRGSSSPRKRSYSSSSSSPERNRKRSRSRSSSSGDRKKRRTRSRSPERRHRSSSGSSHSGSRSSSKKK

Test [2] has as its target T2, HeLa cell extract proteins (Homo sapiens, UniProt P52948).
T2 construct: endogenous in cells; host or cells: HeLa cell extract

The target in test [3] is T3, HeLa cell extract proteins (Homo sapiens, UniProt Q6P3X3).
T3 construct: endogenous in cells; host or cells: HeLa cell extract

In test [4] the target is T4, HeLa cell extract proteins (Homo sapiens, UniProt Q99570).
T4 construct: endogenous in cells; host or cells: HeLa cell extract

Test [5] deals with T5, HeLa cell extract proteins (Homo sapiens, UniProt Q9C0E2).
T5 construct: endogenous in cells; host or cells: HeLa cell extract

In test [6] the target is T6, HeLa cell extract proteins (Homo sapiens, UniProt Q9HAV4).
T6 construct: endogenous in cells; host or cells: HeLa cell extract
T6 sequence (Q9HAV4 1-1204): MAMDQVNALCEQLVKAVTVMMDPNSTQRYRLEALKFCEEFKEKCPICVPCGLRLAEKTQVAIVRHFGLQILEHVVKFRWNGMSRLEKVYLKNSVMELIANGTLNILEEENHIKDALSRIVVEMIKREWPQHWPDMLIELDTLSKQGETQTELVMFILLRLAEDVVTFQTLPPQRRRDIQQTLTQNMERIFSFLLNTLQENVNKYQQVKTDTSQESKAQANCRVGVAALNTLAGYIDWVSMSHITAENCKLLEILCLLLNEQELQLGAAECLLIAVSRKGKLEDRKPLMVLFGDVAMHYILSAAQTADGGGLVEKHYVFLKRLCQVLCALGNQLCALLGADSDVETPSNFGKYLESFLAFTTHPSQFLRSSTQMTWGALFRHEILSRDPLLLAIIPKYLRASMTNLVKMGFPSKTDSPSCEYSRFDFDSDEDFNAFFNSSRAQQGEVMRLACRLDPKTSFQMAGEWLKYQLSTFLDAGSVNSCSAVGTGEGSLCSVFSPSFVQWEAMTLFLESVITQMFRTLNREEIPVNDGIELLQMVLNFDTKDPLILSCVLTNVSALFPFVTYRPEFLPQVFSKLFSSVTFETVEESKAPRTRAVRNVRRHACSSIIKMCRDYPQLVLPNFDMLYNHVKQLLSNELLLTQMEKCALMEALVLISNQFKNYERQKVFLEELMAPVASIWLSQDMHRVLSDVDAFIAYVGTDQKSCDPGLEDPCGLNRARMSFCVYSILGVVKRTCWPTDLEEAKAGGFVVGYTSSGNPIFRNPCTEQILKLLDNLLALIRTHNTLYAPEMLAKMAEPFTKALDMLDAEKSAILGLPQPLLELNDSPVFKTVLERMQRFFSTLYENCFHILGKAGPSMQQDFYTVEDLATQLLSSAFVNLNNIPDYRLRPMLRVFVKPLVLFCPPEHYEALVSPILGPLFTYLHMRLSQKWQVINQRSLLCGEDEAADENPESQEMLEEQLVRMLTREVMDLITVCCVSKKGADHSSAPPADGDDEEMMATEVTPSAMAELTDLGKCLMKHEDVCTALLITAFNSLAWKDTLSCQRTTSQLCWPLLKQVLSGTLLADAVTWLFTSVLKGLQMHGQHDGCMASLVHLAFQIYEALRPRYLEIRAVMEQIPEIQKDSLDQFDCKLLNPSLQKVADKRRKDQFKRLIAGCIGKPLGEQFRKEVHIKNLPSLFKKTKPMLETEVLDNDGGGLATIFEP

Read-outs that look alike come from different tables or passages of the source.

T2 sequence (P52948 whole entry): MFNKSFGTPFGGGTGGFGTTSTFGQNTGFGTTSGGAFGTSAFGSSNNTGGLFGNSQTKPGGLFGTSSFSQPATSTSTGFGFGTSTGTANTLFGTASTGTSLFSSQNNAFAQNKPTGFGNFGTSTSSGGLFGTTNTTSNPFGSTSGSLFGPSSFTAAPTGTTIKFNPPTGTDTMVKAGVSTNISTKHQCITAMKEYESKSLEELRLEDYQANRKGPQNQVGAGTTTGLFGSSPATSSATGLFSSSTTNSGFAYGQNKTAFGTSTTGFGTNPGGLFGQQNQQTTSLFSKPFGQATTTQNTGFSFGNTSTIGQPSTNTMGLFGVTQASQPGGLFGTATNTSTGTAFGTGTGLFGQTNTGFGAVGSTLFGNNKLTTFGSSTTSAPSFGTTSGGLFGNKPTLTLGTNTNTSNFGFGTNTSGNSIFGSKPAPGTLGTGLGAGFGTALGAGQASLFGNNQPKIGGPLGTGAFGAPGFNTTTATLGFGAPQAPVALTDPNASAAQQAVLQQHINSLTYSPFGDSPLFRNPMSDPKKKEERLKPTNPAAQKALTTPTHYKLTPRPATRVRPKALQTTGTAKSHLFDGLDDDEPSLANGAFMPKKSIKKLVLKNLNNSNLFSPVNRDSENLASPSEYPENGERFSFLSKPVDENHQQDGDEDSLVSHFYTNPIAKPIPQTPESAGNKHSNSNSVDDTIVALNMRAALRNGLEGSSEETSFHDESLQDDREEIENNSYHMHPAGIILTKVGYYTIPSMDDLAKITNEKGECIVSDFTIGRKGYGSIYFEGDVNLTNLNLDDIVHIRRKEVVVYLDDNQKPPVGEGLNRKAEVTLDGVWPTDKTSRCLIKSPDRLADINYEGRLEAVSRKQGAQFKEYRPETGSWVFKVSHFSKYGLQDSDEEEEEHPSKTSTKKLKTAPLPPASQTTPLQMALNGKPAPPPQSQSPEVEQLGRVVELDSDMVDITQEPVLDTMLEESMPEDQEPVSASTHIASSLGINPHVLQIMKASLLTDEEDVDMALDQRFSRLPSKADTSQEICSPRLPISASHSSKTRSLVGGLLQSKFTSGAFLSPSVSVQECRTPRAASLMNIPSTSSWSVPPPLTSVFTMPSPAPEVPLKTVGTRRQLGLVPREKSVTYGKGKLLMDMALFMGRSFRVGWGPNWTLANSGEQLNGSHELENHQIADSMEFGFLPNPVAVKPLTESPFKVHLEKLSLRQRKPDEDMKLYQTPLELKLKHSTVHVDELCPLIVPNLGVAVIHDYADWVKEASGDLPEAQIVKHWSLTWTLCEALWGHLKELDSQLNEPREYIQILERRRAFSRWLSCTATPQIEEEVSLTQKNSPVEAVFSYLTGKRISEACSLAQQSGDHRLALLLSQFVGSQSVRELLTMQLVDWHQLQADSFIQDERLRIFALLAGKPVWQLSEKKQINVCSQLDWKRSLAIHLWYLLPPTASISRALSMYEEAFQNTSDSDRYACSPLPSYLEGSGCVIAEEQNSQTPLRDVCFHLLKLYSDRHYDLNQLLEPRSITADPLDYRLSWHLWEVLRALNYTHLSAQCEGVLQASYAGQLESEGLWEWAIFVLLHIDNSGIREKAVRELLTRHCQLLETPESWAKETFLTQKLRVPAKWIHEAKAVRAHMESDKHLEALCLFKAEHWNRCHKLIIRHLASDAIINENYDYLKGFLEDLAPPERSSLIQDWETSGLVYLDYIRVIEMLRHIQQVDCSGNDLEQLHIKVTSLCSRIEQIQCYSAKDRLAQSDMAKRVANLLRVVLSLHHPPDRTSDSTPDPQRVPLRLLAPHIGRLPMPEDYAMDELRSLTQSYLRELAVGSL
T4 sequence (Q99570 whole entry): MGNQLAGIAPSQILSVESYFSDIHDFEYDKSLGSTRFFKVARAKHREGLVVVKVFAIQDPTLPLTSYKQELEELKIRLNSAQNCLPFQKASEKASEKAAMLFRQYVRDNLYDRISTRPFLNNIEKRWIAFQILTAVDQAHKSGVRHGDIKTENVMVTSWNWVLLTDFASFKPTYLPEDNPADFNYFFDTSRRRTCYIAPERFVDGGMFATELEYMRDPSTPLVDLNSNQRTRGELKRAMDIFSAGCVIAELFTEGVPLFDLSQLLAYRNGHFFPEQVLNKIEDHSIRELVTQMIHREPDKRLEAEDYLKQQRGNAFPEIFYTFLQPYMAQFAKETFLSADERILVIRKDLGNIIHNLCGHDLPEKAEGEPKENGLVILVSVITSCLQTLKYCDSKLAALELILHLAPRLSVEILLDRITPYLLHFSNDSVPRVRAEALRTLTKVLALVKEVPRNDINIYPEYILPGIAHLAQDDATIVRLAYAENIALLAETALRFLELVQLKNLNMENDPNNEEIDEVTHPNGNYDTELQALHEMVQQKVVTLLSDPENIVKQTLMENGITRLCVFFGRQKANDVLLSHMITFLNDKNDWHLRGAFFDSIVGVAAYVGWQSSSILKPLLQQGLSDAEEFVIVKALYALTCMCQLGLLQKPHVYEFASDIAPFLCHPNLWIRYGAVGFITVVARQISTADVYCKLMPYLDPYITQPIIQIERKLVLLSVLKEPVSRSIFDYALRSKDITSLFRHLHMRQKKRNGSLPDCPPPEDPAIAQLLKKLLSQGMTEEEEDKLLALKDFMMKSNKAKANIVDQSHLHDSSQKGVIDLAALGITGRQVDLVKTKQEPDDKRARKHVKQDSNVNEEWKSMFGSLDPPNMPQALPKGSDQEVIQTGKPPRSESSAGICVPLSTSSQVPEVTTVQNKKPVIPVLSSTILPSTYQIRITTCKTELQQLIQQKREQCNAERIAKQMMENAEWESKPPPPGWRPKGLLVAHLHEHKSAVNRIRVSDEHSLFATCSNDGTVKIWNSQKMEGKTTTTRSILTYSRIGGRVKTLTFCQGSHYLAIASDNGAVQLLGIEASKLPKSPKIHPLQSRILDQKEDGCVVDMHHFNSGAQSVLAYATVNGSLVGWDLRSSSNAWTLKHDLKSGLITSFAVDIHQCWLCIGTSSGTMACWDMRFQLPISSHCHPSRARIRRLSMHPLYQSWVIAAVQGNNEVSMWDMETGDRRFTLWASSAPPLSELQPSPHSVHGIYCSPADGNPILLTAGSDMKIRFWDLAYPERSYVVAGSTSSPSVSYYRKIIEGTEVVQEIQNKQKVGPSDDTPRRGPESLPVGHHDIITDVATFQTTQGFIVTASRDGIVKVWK
T5 sequence (Q9C0E2 whole entry): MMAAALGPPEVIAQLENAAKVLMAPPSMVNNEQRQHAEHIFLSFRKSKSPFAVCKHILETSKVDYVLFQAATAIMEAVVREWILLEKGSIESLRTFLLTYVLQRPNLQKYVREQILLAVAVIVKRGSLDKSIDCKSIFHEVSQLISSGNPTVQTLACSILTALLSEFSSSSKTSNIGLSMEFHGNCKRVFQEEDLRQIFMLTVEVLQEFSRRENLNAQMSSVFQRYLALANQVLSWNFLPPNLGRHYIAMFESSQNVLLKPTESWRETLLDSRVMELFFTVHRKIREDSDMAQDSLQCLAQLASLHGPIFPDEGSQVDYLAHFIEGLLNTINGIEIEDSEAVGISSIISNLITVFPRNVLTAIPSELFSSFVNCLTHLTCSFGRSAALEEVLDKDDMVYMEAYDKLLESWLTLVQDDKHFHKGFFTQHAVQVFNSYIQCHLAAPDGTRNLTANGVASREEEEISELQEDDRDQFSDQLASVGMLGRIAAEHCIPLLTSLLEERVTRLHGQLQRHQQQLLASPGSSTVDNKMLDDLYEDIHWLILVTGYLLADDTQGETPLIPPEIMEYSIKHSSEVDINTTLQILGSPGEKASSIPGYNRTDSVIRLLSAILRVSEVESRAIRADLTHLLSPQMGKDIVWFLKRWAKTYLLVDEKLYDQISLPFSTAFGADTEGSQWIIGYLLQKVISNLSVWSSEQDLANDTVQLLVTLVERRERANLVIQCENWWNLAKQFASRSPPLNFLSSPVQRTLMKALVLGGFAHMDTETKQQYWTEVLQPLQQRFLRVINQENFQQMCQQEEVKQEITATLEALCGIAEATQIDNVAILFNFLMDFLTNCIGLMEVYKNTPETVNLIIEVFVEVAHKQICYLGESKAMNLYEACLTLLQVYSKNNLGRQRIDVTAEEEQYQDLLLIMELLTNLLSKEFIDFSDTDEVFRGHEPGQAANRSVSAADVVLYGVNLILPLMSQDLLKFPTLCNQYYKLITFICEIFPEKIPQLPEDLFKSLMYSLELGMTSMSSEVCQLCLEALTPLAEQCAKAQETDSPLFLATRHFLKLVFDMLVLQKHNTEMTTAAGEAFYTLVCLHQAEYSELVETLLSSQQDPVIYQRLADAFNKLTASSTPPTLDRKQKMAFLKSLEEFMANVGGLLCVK

On to `Nc1nc2c(c(=O)[nH]1)N(C=O)C(CNc1ccc(C(=O)N[C@@H](CCC(=O)O)C(=O)O)cc1)CN2` (stereo partly drawn) [LEU, leucovorin], for which the “fold changes relative to vehicle control” value in test [1] (protein ZRANB2, HeLa) came to 0.82; in test [2] (HeLa, protein NUP98) it was 0.93; in test [3] (protein TTC27, HeLa), 0.76; in test [4] (HeLa, protein PIK3R4) it was 0.97; in test [5] (HeLa, protein XPO4), 0.92; in test [6] (protein XPO5, HeLa), 0.86.
Regarding `Nc1nc2[nH]cc(CCc3ccc(C(=O)N[C@@H](CCC(=O)O)C(=O)O)cc3)c2c(=O)[nH]1` [PTX, pemetrexed], the “fold changes relative to vehicle control” value is recorded as 0.87 in test [1]; 1 in test [2]; 0.74 in test [3]; 1.08 in test [4]; 0.82 in test [5]; 0.92 in test [6].
Turning to `CCCCCCOc1ccc(Cc2cnc(N)nc2N)cc1` [compound 1], the “fold changes relative to vehicle control” value in test [1] (HeLa, protein ZRANB2) was 1.04; in test [2] (captured protein NUP98, HeLa), 1.05; in test [3] (captured protein TTC27, HeLa), 0.94; in test [4] (captured protein PIK3R4, HeLa), 1.03; in test [5] (HeLa, protein XPO4) it was 0.91; in test [6] (HeLa, protein XPO5) it was 1.
For `CCCCCCOc1cccc(Cc2cnc(N)nc2N)c1` [compound 2], the “fold changes relative to vehicle control” value in test [1] (HeLa, protein ZRANB2) is reported as 1.23; in test [2] (captured protein NUP98, HeLa), 1.11; in test [3] (captured protein TTC27, HeLa) it was 0.92; in test [4] (captured protein PIK3R4, HeLa) it was 1.07; in test [5] (HeLa, protein XPO4), 1.08; in test [6] (HeLa, protein XPO5), 1.18.
With `Nc1nc2cccc(-c3ccccc3)c2n1Cc1ccc(Cl)c(Cl)c1` [compound 3], the “fold changes relative to vehicle control” value in test [1] (HeLa, protein ZRANB2) is 0.98; in test [2] (captured protein NUP98, HeLa), 1.06; in test [3] (captured protein TTC27, HeLa) it was 0.81; in test [4] (captured protein PIK3R4, HeLa), 0.95; in test [5] (HeLa, protein XPO4), 1.07; in test [6] (HeLa, protein XPO5), 1.1.
With `NCCOCCOCC(=O)Nc1nc2ncc(CNc3ccc(C(=O)NC(CCC(=O)O)C(=O)O)cc3)nc2c(=O)[nH]1` (stereo not drawn) [compound 6], the “fold changes relative to vehicle control” value worked out at 0.95 in test [1] (protein ZRANB2, HeLa); 1.21 in test [2] (HeLa, protein NUP98); 0.8 in test [3] (protein TTC27, HeLa); 1.2 in test [4] (HeLa, protein PIK3R4); 0.94 in test [5] (HeLa, protein XPO4); 1.02 in test [6] (protein XPO5, HeLa).
Regarding `NCCCNc1ccc(C(=O)NC(CCC(=O)O)C(=O)O)cc1` (stereo not drawn) [compound 7], the “fold changes relative to vehicle control” value is on record as 0.77 in test [1] (protein ZRANB2, HeLa); 1.05 in test [2] (HeLa, protein NUP98); 0.82 in test [3] (protein TTC27, HeLa); 1.08 in test [4] (HeLa, protein PIK3R4); 1 in test [5] (HeLa, protein XPO4); 0.98 in test [6] (protein XPO5, HeLa).
